The source of these data is patent WO2009110655A1, “Novel beta substituted morita-baylis-hillman derivatives” (FOOD SCIENCE Co Ltd, priority 2008, dated 2009).

In one series the test system is Human HeLa cell lines. The following applies: "It is reported"; cited from earlier work.
Series [1] concerns human esophageal cancer cell line HEC4. Briefly: MTT assay, anticancer effect (cytotoxicity) of β-substituted MBH derivatives. It counts as cell-based. A general note: Tetrazolium assays rely on reduction of a dye to a coloured formazan, in cell work by metabolically active cells.
[2] abbreviates: diluted 20-fold, 24 h at 37 °C (FIG. 3).
Where [3] appears, read: 2 mg compound in 80 μl DMSO, 1 μl per well, 24 h at 37 °C, undiluted (FIGs. 1 and 2).

As for `CCCCCCCCCCCCC/C=C(/C(=O)OC)C(O)C(C)=O` (stereo not drawn) [SE-3, secokotomolide A], in the series on Human HeLa cell lines, the DNA damage entry is reported as “apotositic DNA damage” and the induction of apoptosis entry is reported as “significant induction of apoptosis”. For the same compound, the “viabilities of the cancer cells” value in series [1] (setting [2]) is listed as “about 50%”.
In the case of `C=C(C)C(O[Si](CC)(CC)CC)/C(=C\CCCCCCCCCCCCC)C(=O)OC` (stereo not drawn) [SE-I, (E)-methyl-2-(l-triethylsiloxy-2-methylaryl)hexadeca-2-enoate], in series [1] (setting [3]), the oncolytic activity result is listed as “almost no oncolytic activity”.
Still for that read-out and setting: as for `CCCCCCCCCCCCC/C=C(/C(=O)OC)C(O[Si](CC)(CC)CC)C(C)=O` (stereo not drawn) [SE-2, (E)-methyl-2-(l-triethylsiloxy-2-oxopropyl)hexadeca-2-enoate], the entry is “almost no oncolytic activity”.
As to `CCCCCCCCCCCCC/C=C(/C(=O)OC)C(O)c1ccccc1` (stereo not drawn) [SE-5, (E)-methyl-2-(hydroxy(phenyl)methyl)hexateca-2-enoate], in series [1] (setting [2]), the “viabilities of the cancer cells” value was “about 50%”. Further, the “activity (comparison of diluted samples)” value in series [1] (diluted samples, 20-fold, compared with SE-3 (FIG. 3)) is recorded as “a little higher activity than SE-3”.
As to `CCCCCCCCCCCC/C=C(\C(=O)OC)C(O)c1ccccc1` (stereo not drawn) [SE-Il, (Z)-methyl-2-(hydroxy(phenyl)methyl)pentadeca-2-enoate], in series [1] (setting [3]), the oncolytic activity result is “very high oncolytic activities” and the “viabilities of the cancer cells” value is given as “less than 20%”.
